Among the test systems are ACHN; CAKI-1; COLO 205; DU-145; K562; LOX IMVI; MDA-MB-231; MDA-MB-435; NCI-H522; NCI/ADR-RES; OVCAR-3; OVCAR-5; SF-268; SF-295; SK-OV-3; SN12C; SW-620; UO-31; CCRF-CEM.
Holding throughout (assay): NCI tumour cell line growth inhibition, 48 h

Structures are written as SMILES.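 Each compound was tested at five concentrations against cells in 96-well plates for 48 hours. The concentration for 50% growth inhibition is given as GI50.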 Calls of active or inactive are those of the source. Cut-off read from the data, not from the text of the source: active = GI50 up to about 1.1 µM and inactive = higher.

Consider `NCC(O)CN.Oc1c(Cl)c(Cl)c(Cl)c(Cl)c1Cl`, for which the GI50 in the assay on ACHN is 18.3 µM (inactive); with CAKI-1 it was 31.1 µM (inactive); in the assay on COLO 205, 21 µM (inactive); with DU-145, 31.6 µM (inactive); in the assay on K562 it was 27.9 µM (inactive); in the assay on LOX IMVI it was 17.3 µM (inactive). The GI50 is 20.2 µM (inactive) in the assay with MDA-MB-231; 34.4 µM (inactive) in the assay with MDA-MB-435; 24.6 µM (inactive) with NCI-H522; 18.1 µM (inactive) with NCI/ADR-RES; 13.5 µM (inactive) in the assay with OVCAR-3; 18 µM (inactive) in the assay with OVCAR-5. Moreover, the GI50 in the assay on SF-268 is 29.2 µM (inactive); in the assay on SF-295 it was 17.6 µM (inactive); with SK-OV-3, 21.6 µM (inactive); in the assay on SN12C it was 20.3 µM (inactive); in the assay with SW-620 it was 25.2 µM (inactive); in the assay with UO-31, 16.5 µM (inactive).
`O=C(NCc1ccccc1Cl)c1c(O)c2ccccc2[nH]c1=O`: the GI50 is > 10 µM (inactive) in the assay on ACHN; 22.7 µM (inactive) in the assay on CAKI-1; > 100 µM (inactive) in the assay with CCRF-CEM; 39.8 µM (inactive) in the assay with COLO 205; > 100 µM (inactive) in the assay with DU-145; > 100 µM (inactive) in the assay on K562. Further, the GI50 in the assay on LOX IMVI was > 100 µM (inactive); with MDA-MB-231, 18.6 µM (inactive); in the assay with MDA-MB-435, 36 µM (inactive); with NCI-H522 it was > 100 µM (inactive); in the assay with NCI/ADR-RES, 12.2 µM (inactive); in the assay with OVCAR-3, 32 µM (inactive). Moreover, the GI50 is > 100 µM (inactive) in the assay with OVCAR-5; 72.1 µM (inactive) in the assay with SF-268; 33.4 µM (inactive) in the assay on SF-295; > 100 µM (inactive) in the assay with SN12C; 24.9 µM (inactive) in the assay with SW-620; 13.6 µM (inactive) with UO-31.
Take `Nc1n[nH]c2c(C(=O)Nc3ccc(Cl)cc3)c(N)n(N)c(=O)c12`: the GI50 in the assay with CAKI-1, in the assay with CCRF-CEM, in the assay on COLO 205, with DU-145, with K562 and with LOX IMVI was > 100 µM (inactive) in each case. In addition, the GI50 in the assay on MDA-MB-231, in the assay with MDA-MB-435, in the assay with NCI-H522, in the assay on NCI/ADR-RES, in the assay with OVCAR-3 and with OVCAR-5 was > 100 µM (inactive) each time. In addition, the GI50 in the assay on SF-268, in the assay with SK-OV-3, in the assay on SN12C, with SW-620 and in the assay on UO-31 was > 100 µM (inactive) throughout.
With `CCOC(=O)CCc1c(C(=O)OCC)[nH]c(/C=C2/NC(=O)C(C)=C2CC)c1C`, the GI50 in the assay on ACHN is 11.3 µM (inactive); with CAKI-1 it was 21.2 µM (inactive); in the assay on COLO 205 it was 14 µM (inactive); in the assay on DU-145, 16.9 µM (inactive); in the assay on K562, 0.0494 µM (active); in the assay with LOX IMVI it was 8.18 µM (inactive). Besides, the GI50 is 13.6 µM (inactive) with MDA-MB-231; 6.73 µM (inactive) in the assay with MDA-MB-435; 11.7 µM (inactive) in the assay on NCI-H522; 10.4 µM (inactive) in the assay on NCI/ADR-RES; 3.88 µM (inactive) in the assay with OVCAR-3; 29.5 µM (inactive) with OVCAR-5. The GI50 was 10.2 µM (inactive) in the assay with SF-268; 11.6 µM (inactive) with SF-295; 34.7 µM (inactive) in the assay with SK-OV-3; 16.9 µM (inactive) in the assay on SN12C; 23.2 µM (inactive) in the assay with SW-620; 2 µM (inactive) in the assay on UO-31.
For the molecule `O=P(c1ccccc1)(c1ccccc1)C(NCc1ccccc1)c1ccc(F)cc1` (configuration not stated), the GI50 in the assay on ACHN was 13.8 µM (inactive); with CAKI-1, 17 µM (inactive); with CCRF-CEM it was 16.9 µM (inactive); in the assay with COLO 205 it was 14.7 µM (inactive); in the assay with DU-145, 20 µM (inactive); with K562 it was 18.7 µM (inactive). Further, the GI50 with LOX IMVI is 14.2 µM (inactive); in the assay on MDA-MB-231, 11.1 µM (inactive); in the assay on MDA-MB-435, 8.41 µM (inactive); in the assay on NCI-H522, 11.5 µM (inactive); in the assay with NCI/ADR-RES it was 14 µM (inactive); in the assay with OVCAR-3 it was 14.2 µM (inactive). Also, the GI50 is 19.7 µM (inactive) in the assay with SF-268; 15.2 µM (inactive) in the assay on SF-295; 16.1 µM (inactive) with SK-OV-3; 17.9 µM (inactive) with SN12C; 18.5 µM (inactive) with SW-620; 12.8 µM (inactive) in the assay with UO-31.
`CC(=O)OCC1OC(Nc2ccc3nc(C)n(-c4ccccc4)c(=O)c3c2)C(OC(C)=O)C(OC(C)=O)C1OC(C)=O` (configuration not stated): the GI50 in the assay on ACHN is > 50 µM (inactive); with CAKI-1 it was > 50 µM (inactive); with COLO 205 it was > 50 µM (inactive); with DU-145, > 50 µM (inactive); in the assay with K562, 32.1 µM (inactive); with LOX IMVI it was 42.8 µM (inactive). Also, the GI50 in the assay with MDA-MB-231, in the assay with MDA-MB-435, with NCI-H522, in the assay with NCI/ADR-RES, with OVCAR-3 and in the assay with OVCAR-5 was > 50 µM (inactive) each time. In addition, the GI50 with SF-268, with SF-295, in the assay with SN12C, in the assay with SW-620 and in the assay with UO-31 was > 50 µM (inactive) in each case.
With `BC(=O)NC(CC(C)C)C(=O)NC1c2ccsc2C(=O)C1O.CN(C)C` (configuration not stated), the GI50 in the assay on ACHN, in the assay with CCRF-CEM, with COLO 205, with DU-145, in the assay with K562 and in the assay on LOX IMVI was > 100 µM (inactive) each time. Further, the GI50 in the assay with MDA-MB-231, in the assay on MDA-MB-435, in the assay on NCI-H522, in the assay with NCI/ADR-RES, in the assay on OVCAR-5 and with SF-268 was > 100 µM (inactive) in each case. Further, the GI50 in the assay on SF-295, with SK-OV-3, with SN12C, with SW-620 and in the assay with UO-31 was > 100 µM (inactive) throughout.
As to `Nc1ccc(-c2nn3c(COc4ccc(Cl)cc4)nnc3s2)cc1`, the GI50 in the assay with ACHN was > 100 µM (inactive); in the assay on CAKI-1 it was 54.2 µM (inactive); in the assay with COLO 205 it was 74.5 µM (inactive); in the assay on DU-145 it was > 100 µM (inactive); with K562 it was > 100 µM (inactive); with LOX IMVI, > 100 µM (inactive). The GI50 in the assay on MDA-MB-231 is 87.3 µM (inactive); in the assay with MDA-MB-435, 62.2 µM (inactive); in the assay with NCI-H522 it was 65 µM (inactive); in the assay on NCI/ADR-RES it was > 100 µM (inactive); in the assay with OVCAR-3, > 100 µM (inactive); with OVCAR-5, > 100 µM (inactive). Further, the GI50 is 56.9 µM (inactive) with SF-295; > 100 µM (inactive) with SK-OV-3; > 100 µM (inactive) in the assay with SN12C; > 100 µM (inactive) in the assay with SW-620; 84.9 µM (inactive) in the assay with UO-31.
For `c1csc(-c2cc(-c3cccs3)c(-c3cccs3)s2)c1`, the GI50 with ACHN is > 100 µM (inactive); in the assay on CAKI-1, > 100 µM (inactive); with CCRF-CEM, 35.6 µM (inactive); in the assay with COLO 205, 40.6 µM (inactive); in the assay with DU-145, > 100 µM (inactive); in the assay on K562 it was 79.1 µM (inactive). The GI50 is 56.1 µM (inactive) in the assay on MDA-MB-231; 37.8 µM (inactive) in the assay with MDA-MB-435; 69.3 µM (inactive) in the assay with NCI-H522; > 100 µM (inactive) with NCI/ADR-RES; > 100 µM (inactive) with OVCAR-3; > 100 µM (inactive) with OVCAR-5. The GI50 with SF-268, with SF-295, with SK-OV-3, with SN12C, in the assay on SW-620 and in the assay with UO-31 was > 100 µM (inactive) throughout.
As for `CCC1CCC2c3c([nH]c4ccccc34)C3C(=O)N(c4ccc(OC)cc4)C(=O)C3C2C1` (configuration not stated), the GI50 was 39.8 µM (inactive) with ACHN; 11.1 µM (inactive) in the assay with CCRF-CEM; 74.1 µM (inactive) with COLO 205; > 100 µM (inactive) in the assay with DU-145; 22 µM (inactive) in the assay on K562; 49.7 µM (inactive) in the assay on MDA-MB-231. Moreover, the GI50 was 55.5 µM (inactive) with MDA-MB-435; 77.6 µM (inactive) with NCI-H522; 39.6 µM (inactive) in the assay with NCI/ADR-RES; 22.3 µM (inactive) in the assay on OVCAR-3; 52.5 µM (inactive) with SF-268; 26.8 µM (inactive) with SF-295. For the same molecule, the GI50 is 36.4 µM (inactive) in the assay on SK-OV-3, 68.9 µM (inactive) in the assay on SN12C, 17.7 µM (inactive) in the assay with SW-620 and > 100 µM (inactive) in the assay with UO-31.
`Cc1ccc2c(c1)CC1(Cc3c(C)cccc3C1=O)C2=O` (configuration not stated): the GI50 with ACHN, with CCRF-CEM, in the assay on COLO 205, in the assay with DU-145, in the assay with K562 and in the assay on LOX IMVI was > 100 µM (inactive) throughout. Besides, the GI50 with MDA-MB-231, with MDA-MB-435, with NCI-H522, in the assay with NCI/ADR-RES, with OVCAR-3 and in the assay with OVCAR-5 was > 100 µM (inactive) throughout. Further, the GI50 in the assay on SF-268 is > 100 µM (inactive); in the assay with SF-295 it was 69.8 µM (inactive); with SK-OV-3, 76.2 µM (inactive); with SN12C, > 100 µM (inactive); in the assay on SW-620, > 100 µM (inactive); with UO-31 it was > 100 µM (inactive).

These data come from ChEMBL document CHEMBL1201862, “PubChem BioAssay data set” (2004).
